The target of data set [1] is T1, Focal adhesion kinase 1 (Homo sapiens, UniProt Q05397). Description: Inhibition of GST-tagged FAK assessed as inhibition of poly-Glu-Tyr phosphorylation by fluorescence polarization assay. (In fluorescence polarisation assays a small probe gives low polarisation when free and higher when bound to something large.)
For data set [2], the target named is T1, Focal adhesion kinase 1.
The next data set is described as follows: in vitro. Particulars: human, liver microsomes.
For data set [3], the target named is Protein-tyrosine kinase 2-beta (Homo sapiens, UniProt Q14289).
Description: Inhibition of GST-tagged pyk2 assessed as inhibition of poly-Glu-Tyr phosphorylation
Data set [4] in a line: Oral bioavailability in rat. The conditions noted are these: in vivo. The class given is ADME, organism-based.

Some results are limits rather than exact numbers.

T1 sequence (Q05397 whole entry): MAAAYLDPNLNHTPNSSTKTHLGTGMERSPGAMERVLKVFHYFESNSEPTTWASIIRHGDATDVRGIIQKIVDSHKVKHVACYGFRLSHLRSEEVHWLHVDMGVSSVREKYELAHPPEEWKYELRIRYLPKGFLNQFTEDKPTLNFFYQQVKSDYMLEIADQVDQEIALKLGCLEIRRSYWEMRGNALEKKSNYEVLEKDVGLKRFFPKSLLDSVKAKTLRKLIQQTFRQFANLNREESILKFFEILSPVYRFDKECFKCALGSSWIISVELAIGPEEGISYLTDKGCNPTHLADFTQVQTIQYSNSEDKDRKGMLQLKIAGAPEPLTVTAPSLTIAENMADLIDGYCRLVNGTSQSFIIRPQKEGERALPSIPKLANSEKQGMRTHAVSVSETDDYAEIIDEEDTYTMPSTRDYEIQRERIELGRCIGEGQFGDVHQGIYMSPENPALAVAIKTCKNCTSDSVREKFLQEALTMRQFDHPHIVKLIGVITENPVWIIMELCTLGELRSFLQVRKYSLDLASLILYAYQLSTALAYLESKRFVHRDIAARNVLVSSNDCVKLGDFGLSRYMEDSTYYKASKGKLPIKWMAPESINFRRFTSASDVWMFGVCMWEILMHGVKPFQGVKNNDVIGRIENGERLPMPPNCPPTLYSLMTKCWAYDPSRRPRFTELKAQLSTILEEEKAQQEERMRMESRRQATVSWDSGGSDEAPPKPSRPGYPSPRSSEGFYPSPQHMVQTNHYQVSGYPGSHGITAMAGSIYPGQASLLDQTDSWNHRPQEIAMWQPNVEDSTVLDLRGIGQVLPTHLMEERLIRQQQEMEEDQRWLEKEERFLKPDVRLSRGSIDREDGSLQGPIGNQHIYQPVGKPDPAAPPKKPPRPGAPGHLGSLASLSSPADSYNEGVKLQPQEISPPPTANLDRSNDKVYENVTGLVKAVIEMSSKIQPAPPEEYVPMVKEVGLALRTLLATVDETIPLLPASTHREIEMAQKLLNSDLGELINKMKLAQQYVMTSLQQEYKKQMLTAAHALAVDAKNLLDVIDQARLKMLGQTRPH
Protein-tyrosine kinase 2-beta, sequence (Q14289 whole entry): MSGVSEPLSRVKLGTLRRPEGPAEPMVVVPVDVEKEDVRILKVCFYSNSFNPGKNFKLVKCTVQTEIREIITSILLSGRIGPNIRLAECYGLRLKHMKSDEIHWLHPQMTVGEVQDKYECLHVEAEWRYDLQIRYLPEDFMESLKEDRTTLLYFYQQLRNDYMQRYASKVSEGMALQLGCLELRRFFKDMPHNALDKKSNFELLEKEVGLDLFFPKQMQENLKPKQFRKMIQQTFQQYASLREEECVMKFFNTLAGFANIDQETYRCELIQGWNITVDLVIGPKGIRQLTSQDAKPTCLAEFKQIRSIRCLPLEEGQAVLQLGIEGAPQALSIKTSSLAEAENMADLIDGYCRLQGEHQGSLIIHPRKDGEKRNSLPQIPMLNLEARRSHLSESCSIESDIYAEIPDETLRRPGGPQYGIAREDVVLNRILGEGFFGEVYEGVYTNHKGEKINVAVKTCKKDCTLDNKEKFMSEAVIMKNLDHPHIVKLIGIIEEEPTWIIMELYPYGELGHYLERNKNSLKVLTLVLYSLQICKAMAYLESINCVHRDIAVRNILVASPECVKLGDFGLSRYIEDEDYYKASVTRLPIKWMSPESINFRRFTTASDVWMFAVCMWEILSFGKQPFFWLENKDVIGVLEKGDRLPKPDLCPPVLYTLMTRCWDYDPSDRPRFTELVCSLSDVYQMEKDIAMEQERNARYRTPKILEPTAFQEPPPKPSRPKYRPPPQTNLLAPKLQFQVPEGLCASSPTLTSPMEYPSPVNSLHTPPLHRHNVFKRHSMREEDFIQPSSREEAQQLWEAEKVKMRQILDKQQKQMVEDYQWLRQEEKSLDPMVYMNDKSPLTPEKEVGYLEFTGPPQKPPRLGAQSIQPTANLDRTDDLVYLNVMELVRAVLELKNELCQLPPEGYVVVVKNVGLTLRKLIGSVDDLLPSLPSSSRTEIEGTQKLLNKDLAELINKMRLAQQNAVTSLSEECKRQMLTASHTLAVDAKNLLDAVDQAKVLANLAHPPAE
Description for in vitro: Metabolic stability in human liver microsomes assessed as hepatic extraction ratio

Take `CN(C)[C@@H]1CCC[C@H]1Nc1nc(Nc2ccncc2)ncc1C(F)(F)F`: the figures for the IC50 on Focal adhesion kinase 1 [1] and on Focal adhesion kinase 1 [2] were 6.9 µM and 4100 nM, respectively. Moreover, in “in vitro”, the hepatic extraction ratio is 0.48.

As for `CN(C)[C@@H]1CCC[C@H]1Nc1nc(Nc2ccc3c(c2)CS(=O)(=O)N3)ncc1C(F)(F)F`, the half-maximal inhibitory concentration (IC50) (usually the concentration needed to halve the response being measured) at Focal adhesion kinase 1 [2] is over 650 nM; in data set [3] it was 50 nM. The hepatic extraction ratio in “in vitro” was under 0.26.

Turning to `CN(C)C(=O)c1cccc(Nc2ncc(C(F)(F)F)c(N[C@@H]3CCC[C@H]3N(C)C)n2)c1`, the IC50 at Focal adhesion kinase 1 [1] stood at 4 µM; on Focal adhesion kinase 1 [2], 3900 nM. For the same compound, in the data set “in vitro”, the hepatic extraction ratio worked out at 0.66.

Consider `CCN(CC)C(=O)c1ccc(Nc2ncc(C(F)(F)F)c(N[C@@H]3CCC[C@H]3N(C)C)n2)cc1`, for which, at Focal adhesion kinase 1 [2], half-maximal inhibition (IC50) required 3300 nM. In addition, the hepatic extraction ratio in the data set “in vitro” is 0.66.

For `Cn1ccc2cc(Nc3ncc(C(F)(F)F)c(NCc4ccccn4)n3)ccc21`, the bioavailability (commonly the share of a dose that reaches the circulation, judged against a reference dose that is usually intravenous) in data set [4] is under 5%.

`O=C1Cc2cc(Nc3ncc(C(F)(F)F)c(NCc4ccccc4)n3)ccc2N1`: the IC50 came out at 34 nM on Focal adhesion kinase 1 [2] and 120 nM in data set [3]. Also, the hepatic extraction ratio in the data set “in vitro” is under 0.26.

In turn, `FC(F)(F)c1cnc(Nc2ccc3[nH]ncc3c2)nc1NCc1ccccn1` came in with a bioavailability in data set [4] of under 5%.

Turning to `O=C1Cc2cc(Nc3nccc(NCc4ccccn4)n3)ccc2N1`, the IC50 (on Focal adhesion kinase 1 [2]; in data set [3]) was over 10000 nM each time. Moreover, in the data set “in vitro”, the hepatic extraction ratio is under 0.26.

Consider `Cc1cnc(Nc2ccc3c(c2)CC(=O)N3)nc1NCc1ccccn1`, for which the figures for the IC50 (at Focal adhesion kinase 1 [2]; in data set [3]) were 2200 nM and over 3000 nM, respectively. In the data set “in vitro”, the hepatic extraction ratio was under 0.3.

As to `O=C1CCCc2cc(Nc3ncc(C(F)(F)F)c(NC4CCC4)n3)ccc2N1`, the IC50 in data set [3] stood at 33 nM.

Turning to `CS(=O)(=O)c1cccc(CNc2nc(Nc3ccc4c(c3)CC(=O)N4)ncc2C(F)(F)F)c1`, the half-maximal inhibitory concentration (IC50) was 9 nM against Focal adhesion kinase 1 [2] and over 1100 nM in data set [3]. The hepatic extraction ratio in “in vitro” amounted to 0.35.

As to `CS(=O)(=O)c1ccccc1CNc1nc(Nc2ccc3c(c2)CC(=O)N3)ncc1C(F)(F)F`, the values for the IC50 (at Focal adhesion kinase 1 [2]; in data set [3]) were 59 nM and 15 nM, respectively. Besides, the hepatic extraction ratio in the data set “in vitro” was 0.55.

Take `CN(c1ccccc1CNc1nc(Nc2ccc(S(C)(=O)=O)cc2)ncc1C(F)(F)F)S(C)(=O)=O`: the IC50 was 0.94 nM on Focal adhesion kinase 1 [2] and 35 nM in data set [3]. Also, the hepatic extraction ratio in “in vitro” came out at 0.93.

Regarding `CN(C)[C@@H]1CCC[C@H]1Nc1nc(Nc2ccn3ccnc3c2)ncc1C(F)(F)F`, the hepatic extraction ratio in “in vitro” came to 0.41.

As for `O=C1Cc2cc(Nc3ncc(Cl)c(NCc4ccccn4)n3)ccc2N1`, the half-inhibitory concentration (IC50) against Focal adhesion kinase 1 [2] was 77 nM; in data set [3], over 1000 nM. The hepatic extraction ratio in the data set “in vitro” was under 0.28.

For `CN(c1cccc(CNc2nc(Nc3ccc4c(c3)CC(=O)N4)ncc2C(F)(F)F)c1)S(C)(=O)=O`, the IC50 at Focal adhesion kinase 1 [2] came to 1.9 nM; in data set [3] it was 190 nM. In “in vitro”, the hepatic extraction ratio worked out at 0.59.

For the origin of these results see ChEMBL document CHEMBL1152158, “Trifluoromethylpyrimidine-based inhibitors of proline-rich tyrosine kinase 2 (PYK2): structure-activity relationships and strategies for the elimination of reactive metabolite formation” (Bioorg Med Chem Lett, 2008).
